One data set concerns the target AMPK α1β2γ1 (Homo sapiens, UniProt O43741+Q13131). In words: Caliper mobility shift kinase assay, FAM-SAMS peptide. It counts as biochemical.
In another data set the target is AMPK α1β1γ1 (Homo sapiens, UniProt Q13131+Q9Y478). The data set is described as above. It counts as biochemical.
A further data set relates to HepG2. As to the kind of experiment: cells. As to conditions: Homo sapiens, HepG2, read-out: Hu HepG2 EC50.
A short description of data set [1]: physchem. Particulars: aqueous phosphate buffer, pH 7.4, aqueous buffer.
A short description of data set [2]: in vitro. Particulars: human, plasma.
Data set [3] is described as follows: physchem. Particulars: 1-octanol/phosphate buffer, pH 7.4.
Data set [4] can be described thus: in vitro. Particulars: human, Caco-2.
The nature of data set [5]: in vitro. Particulars: human, liver microsomes.
Data set [6] in a line: in vitro. As to conditions: human, hepatocytes.
A short description of data set [7]: in vitro. As to conditions: rat, hepatocytes.
Data set [8] is described as follows: in vitro. Particulars: mouse, hepatocytes.

We go through 1 compound from paper doi:10.1101/2024.05.30.596624v1 (biorxiv, 2024).

≈ marks a conversion by molar mass, not a printed value.

AMPK α1β1γ1, sequence (Q13131 whole entry): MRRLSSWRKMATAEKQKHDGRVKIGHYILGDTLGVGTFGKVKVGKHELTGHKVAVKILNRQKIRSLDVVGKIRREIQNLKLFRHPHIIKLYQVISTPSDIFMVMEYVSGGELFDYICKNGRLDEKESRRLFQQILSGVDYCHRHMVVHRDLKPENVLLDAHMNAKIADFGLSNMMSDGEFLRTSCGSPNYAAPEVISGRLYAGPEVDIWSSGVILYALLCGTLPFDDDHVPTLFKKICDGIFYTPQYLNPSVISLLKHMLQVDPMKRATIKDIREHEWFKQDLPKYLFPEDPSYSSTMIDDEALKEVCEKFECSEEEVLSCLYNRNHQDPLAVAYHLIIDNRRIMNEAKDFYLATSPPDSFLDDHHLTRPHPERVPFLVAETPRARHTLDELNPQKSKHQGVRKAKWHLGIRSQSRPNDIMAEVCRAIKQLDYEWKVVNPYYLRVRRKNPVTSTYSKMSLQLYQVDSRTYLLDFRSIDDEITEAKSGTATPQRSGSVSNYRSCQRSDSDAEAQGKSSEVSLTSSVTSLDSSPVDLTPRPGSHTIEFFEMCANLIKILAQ
AMPK α1β1γ1, sequence (Q9Y478 2-270): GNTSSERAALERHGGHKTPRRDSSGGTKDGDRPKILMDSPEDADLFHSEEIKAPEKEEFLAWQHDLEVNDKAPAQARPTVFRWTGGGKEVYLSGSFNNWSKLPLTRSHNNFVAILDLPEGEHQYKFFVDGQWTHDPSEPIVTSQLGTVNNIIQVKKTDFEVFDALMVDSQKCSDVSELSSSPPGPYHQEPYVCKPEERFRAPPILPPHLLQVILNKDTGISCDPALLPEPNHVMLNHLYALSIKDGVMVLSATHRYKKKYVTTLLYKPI
AMPK α1β1γ1, sequence (P54619 whole entry partner): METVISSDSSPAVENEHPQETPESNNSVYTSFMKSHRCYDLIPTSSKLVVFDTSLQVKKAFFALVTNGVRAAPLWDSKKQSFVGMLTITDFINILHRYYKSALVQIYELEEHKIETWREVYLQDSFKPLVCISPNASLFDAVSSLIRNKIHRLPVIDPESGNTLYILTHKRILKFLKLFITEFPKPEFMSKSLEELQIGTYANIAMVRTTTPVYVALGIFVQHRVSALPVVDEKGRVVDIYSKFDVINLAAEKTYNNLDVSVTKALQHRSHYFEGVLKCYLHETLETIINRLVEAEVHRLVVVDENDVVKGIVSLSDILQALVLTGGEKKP
AMPK α1β2γ1, sequence (Q13131 whole entry): as the sequence (Q13131 whole entry) above
AMPK α1β2γ1, sequence (O43741 whole entry): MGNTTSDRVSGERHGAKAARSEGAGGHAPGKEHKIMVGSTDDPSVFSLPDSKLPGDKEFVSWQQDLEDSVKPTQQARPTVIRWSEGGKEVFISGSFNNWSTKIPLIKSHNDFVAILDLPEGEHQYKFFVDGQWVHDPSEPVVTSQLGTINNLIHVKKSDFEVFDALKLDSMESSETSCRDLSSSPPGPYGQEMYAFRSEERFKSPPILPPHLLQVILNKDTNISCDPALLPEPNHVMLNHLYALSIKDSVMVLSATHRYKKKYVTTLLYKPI
AMPK α1β2γ1, sequence (P54619 whole entry partner): as the sequence (P54619 whole entry partner) above

On to `CS(C)(=O)=Nc1ccc(-c2ccc(-c3nc4[nH]c(O[C@@H]5CO[C@H]6[C@@H]5OC[C@H]6O)nc4cc3Cl)cc2)cc1` [BI9774], for which the EC50 at AMPK α1β2γ1 is 63.1 ± 14.7 nM; at AMPK α1β1γ1 it was 20 ± 9.5 nM; in the data set with HepG2, 83.2 nM. In addition, the solubility at 27 h in the data set “physchem [1]” is 8 µM (≈ 4.33 µg/mL). For the same compound, in “in vitro [2]”, the fraction unbound came to 0.037. In the data set “physchem [3]”, this compound displayed a logD of 2.8. For the same compound, the Papp in “in vitro [4]” is 26 ×10⁻⁶ cm/s. In the data set “in vitro [5]”, this compound showed a microsomal CLint of less than 3 µL/min/mg. Besides, the intrinsic metabolic clearance (hepatocyte CLint) in the data set “in vitro [6]” was less than 1 µL/min/1e6 cells; in “in vitro [7]”, less than 1.4 µL/min/1e6 cells; in “in vitro [8]” it was 8.6 µL/min/1e6 cells.
